{"source": "ChEMBL document CHEMBL1201862", "about": "“PubChem BioAssay data set” (2004)", "key": {"[1]": {"target": "RNA-editing ligase 1, mitochondrial (Trypanosoma brucei brucei, UniProt P86926)", "sequence (P86926 whole entry)": "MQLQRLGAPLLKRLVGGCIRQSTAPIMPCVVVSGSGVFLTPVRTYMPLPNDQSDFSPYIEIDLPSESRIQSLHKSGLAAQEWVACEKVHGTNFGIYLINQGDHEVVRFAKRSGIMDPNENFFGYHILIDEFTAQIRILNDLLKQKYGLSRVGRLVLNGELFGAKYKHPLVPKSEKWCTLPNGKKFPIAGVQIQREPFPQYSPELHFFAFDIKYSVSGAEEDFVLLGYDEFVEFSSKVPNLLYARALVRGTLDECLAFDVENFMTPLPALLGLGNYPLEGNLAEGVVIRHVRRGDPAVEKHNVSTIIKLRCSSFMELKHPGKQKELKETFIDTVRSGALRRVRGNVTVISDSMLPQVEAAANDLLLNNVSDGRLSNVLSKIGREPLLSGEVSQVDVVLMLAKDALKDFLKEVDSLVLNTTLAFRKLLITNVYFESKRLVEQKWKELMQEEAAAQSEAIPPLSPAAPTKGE", "test": "TbREL1 ligase inhibitors, dose response, biochemical, fluorescence, Trypanosoma brucei (AID 1117295)", "format": "functional"}, "[2]": {"target": "Potassium channel subfamily K member 3 (Rattus norvegicus, UniProt O54912)", "sequence (O54912 whole entry, the tested form may be a part)": "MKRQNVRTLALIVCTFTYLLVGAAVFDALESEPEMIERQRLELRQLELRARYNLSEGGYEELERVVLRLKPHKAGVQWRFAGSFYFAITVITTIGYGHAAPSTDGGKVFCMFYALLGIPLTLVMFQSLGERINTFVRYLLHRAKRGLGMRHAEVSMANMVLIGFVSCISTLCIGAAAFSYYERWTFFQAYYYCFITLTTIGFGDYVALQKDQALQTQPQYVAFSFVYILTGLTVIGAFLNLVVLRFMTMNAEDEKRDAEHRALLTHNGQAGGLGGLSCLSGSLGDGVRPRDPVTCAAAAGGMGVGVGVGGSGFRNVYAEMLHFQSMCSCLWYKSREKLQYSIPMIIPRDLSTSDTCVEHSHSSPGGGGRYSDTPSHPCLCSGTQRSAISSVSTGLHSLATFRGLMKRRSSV", "test": "SAR analysis for the identification of selective inhibitors of the two-pore domain potassium channel TASK1(KCNK3):Automated Electrophysiology.", "format": "functional"}, "[3]": {"target": "Potassium channel subfamily K member 9 (Homo sapiens, UniProt Q9NPC2)", "sequence (Q9NPC2 whole entry)": "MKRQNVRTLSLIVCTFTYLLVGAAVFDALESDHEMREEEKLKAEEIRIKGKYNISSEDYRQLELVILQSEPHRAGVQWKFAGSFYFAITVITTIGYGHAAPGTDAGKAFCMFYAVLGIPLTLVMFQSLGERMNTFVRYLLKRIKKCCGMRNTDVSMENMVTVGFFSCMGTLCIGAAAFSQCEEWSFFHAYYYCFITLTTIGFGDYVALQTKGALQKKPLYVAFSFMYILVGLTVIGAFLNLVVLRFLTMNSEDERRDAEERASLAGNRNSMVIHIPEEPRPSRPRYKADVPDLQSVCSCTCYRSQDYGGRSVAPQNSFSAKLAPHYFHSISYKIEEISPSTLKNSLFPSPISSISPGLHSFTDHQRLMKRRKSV", "test": "TASK3 (KCNK9) channel inhibitors, thallium flux, SAR follow-up, selectivity assay for TASK1 inhibitor project, cell-based, FluxOR thallium flux, concentration-response (AID 652211);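 note: potency is for inhibitors of the channel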", "format": "functional"}, "[4]": {"test": "HEK293 cell cytotoxicity, dose response, cytotoxicity control, ATP luminescence, dry powder, Set6 (AID 743142)", "format": "functional, cell-based"}, "[5]": {"test": "A549 cell cytotoxicity, dose response, cytotoxicity control, CellTiter-Glo luminescence, dry powder, set 3 (AID 743146)", "format": "functional, cell-based"}, "Paired box protein Pax-8": {"target": "Paired box protein Pax-8 (Homo sapiens, UniProt Q06710)", "sequence (Q06710 whole entry)": "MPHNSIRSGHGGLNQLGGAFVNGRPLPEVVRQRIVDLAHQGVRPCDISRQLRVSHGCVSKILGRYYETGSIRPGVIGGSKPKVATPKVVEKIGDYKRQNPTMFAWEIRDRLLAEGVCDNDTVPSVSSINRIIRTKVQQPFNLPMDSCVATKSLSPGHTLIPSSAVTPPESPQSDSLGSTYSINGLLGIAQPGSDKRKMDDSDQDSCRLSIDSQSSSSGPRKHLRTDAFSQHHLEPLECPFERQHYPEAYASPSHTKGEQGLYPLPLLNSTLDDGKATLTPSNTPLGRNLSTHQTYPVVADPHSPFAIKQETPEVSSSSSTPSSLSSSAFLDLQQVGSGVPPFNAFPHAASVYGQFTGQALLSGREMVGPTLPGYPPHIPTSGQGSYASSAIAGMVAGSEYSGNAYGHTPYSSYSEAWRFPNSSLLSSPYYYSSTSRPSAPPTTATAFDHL", "test": "inhibitors of PAX8-driven TPO luciferase reporter, dose response, RMG-I cells, cherry-pick (AID 687027);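 note: luciferase reporter driven by Pax8 target thyroperoxidase promoter measured by SteadyGlo luminescence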", "format": "functional, cell-based"}, "[6]": {"test": "non-specific cell cytotoxicity, dose response, cytotoxicity control for PAX8 inhibitor project, plate reader, dry powder samples (AID 743021)", "format": "functional, cell-based"}, "[7]": {"test": "IGROV1 ovarian cancer cell cytotoxicity, dose response, PAX8 inhibitor project, plate reader, dry powder samples (AID 743043)", "format": "functional, cell-based", "details": "IGROV-1"}, "[8]": {"test": "NIH:OVCAR-3 ovarian cancer cell cytotoxicity, dose response, PAX8 inhibitor project, plate reader, dry powder samples (AID 743044)", "format": "functional, cell-based"}, "[9]": {"test": "cytotoxicity in OVCAR8 ovarian cancer cells, dose response, PAX8 project, cell-based, plate reader, dry powder samples (AID 743197)", "format": "functional", "details": "OVCAR-8"}, "[10]": {"test": "HepG2 cell cytotoxicity, dose response, cytotoxicity control, ATP luminescence, cherry-pick, activator set 2 (AID 1053143)", "format": "functional, cell-based"}}, "note": "Calls of active or inactive are those of the source."}
{"smiles": "COC(=O)C1=C(C)N(Cc2cccc(C(F)(F)F)c2)C(NCc2ccccc2)=NC1c1ccccc1C(F)(F)F", "note": "(configuration not stated)", "values": [{"measurement": "IC50", "setting": "[1]", "value": "> 96.6 µM (inactive)"}]}
{"smiles": "CCOc1ccccc1C(=O)Nc1cccc(NC(=O)c2ccccc2C(F)(F)F)c1", "values": [{"measurement": "IC50", "setting": "[2]", "value": "0.01 µM (active)"}, {"measurement": "IC50", "setting": "[3]", "value": "1.04 µM (active)"}]}
{"smiles": "O=C(CCNC(=O)c1ccc(OC(F)(F)F)cc1)N[C@@H]1CCCc2ccccc21", "values": [{"measurement": "AC50", "setting": "[4]", "value": "6.21 µM (active)"}, {"measurement": "AC50", "setting": "[5]", "value": "26 µM (active)"}]}
{"smiles": "COc1ccc(S(=O)(=O)Nc2ccc3c(c2)C(=O)N([C@@H](C)CO)C[C@@H](C)[C@H](CN(C)Cc2ccc(C(F)(F)F)cc2)OCCCC[C@H](C)O3)cc1", "values": [{"measurement": "AC50", "setting": "Paired box protein Pax-8", "value": "10.8 µM (active)"}, {"measurement": "AC50", "setting": "[6]", "value": "45.4 µM (active)"}]}
{"smiles": "COc1ccc(CN(C)C[C@H]2OCCCC[C@H](C)Oc3ccc(NC(=O)Nc4ccc(C(F)(F)F)cc4)cc3C(=O)N([C@H](C)CO)C[C@H]2C)cc1", "values": [{"measurement": "AC50", "setting": "[7]", "value": "54.7 µM (active)"}, {"measurement": "AC50", "setting": "Paired box protein Pax-8", "value": "9.16 µM (active)"}, {"measurement": "AC50", "setting": "[8]", "value": "26.4 µM (active)"}, {"measurement": "AC50", "setting": "[9]", "value": "59 µM (active)"}]}
{"smiles": "O=C(Nc1ccc(F)cc1)c1ccc2nsnc2c1", "values": [{"measurement": "AC50", "setting": "[10]", "value": "> 52 µM (inactive)"}]}
